This note sets out measurements from article PMC9458059, “Design, Synthesis and Biological Evaluation of New Carbohydrate-Based Coumarin Derivatives as Selective Carbonic Anhydrase IX Inhibitors via “Click” Reaction” (Molecules, 2022).

The test system of one series is MDA-MB-231 cancer cells. In words: Extracellular pH measurement, MDA-MB-231. The class given is cell-based, human. The note with it: MDA-MB-231, 0.1 and 0.5 mM, 48 h, normoxia and hypoxia. The procedure: (§1) One important feature of CA IX is regulating the pH of tumor cells. The expression of CA IX in solid tumors will make the extracellular pH become more acidic to promote tumor growth and metastasis. Therefore, the effect on extracellular pH of the representative compounds 10a and 10h was tested in hypoxia and normoxic conditions. […] Especially, the extracellular acidification of these two cancer cells could be slightly reversed by this compound under normoxic condition. In addition, the reversal of extracellular acidification is more significant under hypoxia condition. Furthermore, a dose-dependent effect was observed.
(§2) Figure 3 Extracellular pH measurement after 48 h of HT-29 and MDA-MB-231 cancer cells in normoxia and hypoxia upon treatment with compound 10a and 10h (0.1 and 0.5 mM).

The next series can be described thus: Plasma stability assay. It counts as in vitro ADME. To be noted: male, SD, pH 7.4, rat plasma, 37 °C. The procedure: In fact, most drugs reach their targets to show their pharmacological activity via the circulation system, therefore, the plasma stability of the target compound is a crucial consideration for the evaluation of its druggability. Therefore, the in vitro plasma stability assay of the representative compound was also performed in this study.
Rat plasma was collected from adult male SD rats. The in vitro stability of 10a was determined in rat plasma and in PBS at 37 °C, at the meantime, samples were taken at time points 0, 10, 30, 60, and 120, and tested by HPLC. The rest of the time was incubated in a constant temperature shaker to compare different time points. Compare the peak areas of 10a in PBS or in rat plasma (pH = 7.4, 37 °C) before and after constant temperature incubation at different time points. The compounds in rat plasma were extracted with methanol, centrifuged, and repeated three times, and then detected with a preparative liquid phase at 254 wavelength.

The target in another series is T1, hCA I (Homo sapiens, UniProt P00915).
T1 construct: purchased
T1 sequence (P00915 whole entry): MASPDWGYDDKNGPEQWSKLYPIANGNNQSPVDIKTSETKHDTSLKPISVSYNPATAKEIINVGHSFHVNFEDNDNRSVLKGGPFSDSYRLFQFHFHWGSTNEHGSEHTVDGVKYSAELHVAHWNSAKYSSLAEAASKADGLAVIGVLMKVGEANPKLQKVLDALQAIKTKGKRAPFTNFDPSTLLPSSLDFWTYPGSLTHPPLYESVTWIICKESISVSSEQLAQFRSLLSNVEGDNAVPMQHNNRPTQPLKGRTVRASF
As to the kind of experiment: CA inhibition by the esterase assay, hCA I. To be noted: human recombinant enzyme, 4-nitrophenylacetate as substrate. It counts as biochemical. The protocol: (§3) The esterase assay was used for testing the inhibitory activities of target compounds against carbonic anhydrases. […] Next, the stock solution of inhibitor was diluted to the specified concentration by using analysis buffer. […] In addition, the purchased CA was diluted with analysis buffer and added to 96-well plates. Next, different concentrations of inhibitors were also added to 96-well plates. To form the inhibitors and enzymes complex, E-I solutions were preincubated together for 4 h before the test at room temperature. Meanwhile, the nonenzymatic hydrolysis rates were tested by the blank control experiments. The absorbances were determined by using multifunctional enzyme marking instrument.

The target in a further series is hCA II (Homo sapiens, UniProt P00918). In words: CA inhibition by the esterase assay, hCA II. It counts as biochemical. To be noted: human recombinant enzyme, 4-nitrophenylacetate as substrate. The protocol: as §3
Series [1] in a line: Metabolic stability in mouse liver microsomes. For orientation: Liver microsomes are a subcellular fraction often used to study metabolism.
The next series relates to MDA-MB-231 cells. In words: Cell viability MTT assay, MDA-MB-231. The class given is cell-based. The note with it: Homo sapiens. The procedure: (§4) In the present study, the potential cytotoxicity of compounds 10a–10p was evaluated in vitro by MTT assay. […] So, half of each cell line were subjected to hypoxic conditions (0.5% O2, 5% CO2 and 94.5% N2) for inducing the expression of CA IX and the other half were incubated under normal conditions (normoxia). Subsequently, all synthesized derivatives were screened at a concentration of 100 μM to test their cytotoxicity in mentioned above cells.
(§5) The two human cancer cell lines were cultivated for 24 h at 37 °C in a 96-well plate. Subsequently, different concentrations of inhibitors were added to 96-well plate and then was incubated for 96 hours. After the MTT solution was added to per well, cancer cells were further incubated for 4 h at 37 °C. Finally, formazan crystals were dissolved by using DMSO. The cancer cells were from American Type Culture Collection.
For orientation: Formazan colour is commonly taken as a measure of viable cells.

The test system of a further series is HT-29 cells. As to the kind of experiment: Cell viability MTT assay, HT-29. The class given is cell-based. To be noted: Homo sapiens. The protocol: as §4, §5
A further series relates to MCF-10A cell line. In words: Cytotoxicity against normal cell line MCF-10A (MTT assay). It counts as cell-based. To be noted: Homo sapiens.
For a further series, the target named is T2, hERG channel (Homo sapiens, UniProt Q12809).
T2 construct: expressed in transfected cells; host or cells: HEK 293
T2 sequence (Q12809 whole entry): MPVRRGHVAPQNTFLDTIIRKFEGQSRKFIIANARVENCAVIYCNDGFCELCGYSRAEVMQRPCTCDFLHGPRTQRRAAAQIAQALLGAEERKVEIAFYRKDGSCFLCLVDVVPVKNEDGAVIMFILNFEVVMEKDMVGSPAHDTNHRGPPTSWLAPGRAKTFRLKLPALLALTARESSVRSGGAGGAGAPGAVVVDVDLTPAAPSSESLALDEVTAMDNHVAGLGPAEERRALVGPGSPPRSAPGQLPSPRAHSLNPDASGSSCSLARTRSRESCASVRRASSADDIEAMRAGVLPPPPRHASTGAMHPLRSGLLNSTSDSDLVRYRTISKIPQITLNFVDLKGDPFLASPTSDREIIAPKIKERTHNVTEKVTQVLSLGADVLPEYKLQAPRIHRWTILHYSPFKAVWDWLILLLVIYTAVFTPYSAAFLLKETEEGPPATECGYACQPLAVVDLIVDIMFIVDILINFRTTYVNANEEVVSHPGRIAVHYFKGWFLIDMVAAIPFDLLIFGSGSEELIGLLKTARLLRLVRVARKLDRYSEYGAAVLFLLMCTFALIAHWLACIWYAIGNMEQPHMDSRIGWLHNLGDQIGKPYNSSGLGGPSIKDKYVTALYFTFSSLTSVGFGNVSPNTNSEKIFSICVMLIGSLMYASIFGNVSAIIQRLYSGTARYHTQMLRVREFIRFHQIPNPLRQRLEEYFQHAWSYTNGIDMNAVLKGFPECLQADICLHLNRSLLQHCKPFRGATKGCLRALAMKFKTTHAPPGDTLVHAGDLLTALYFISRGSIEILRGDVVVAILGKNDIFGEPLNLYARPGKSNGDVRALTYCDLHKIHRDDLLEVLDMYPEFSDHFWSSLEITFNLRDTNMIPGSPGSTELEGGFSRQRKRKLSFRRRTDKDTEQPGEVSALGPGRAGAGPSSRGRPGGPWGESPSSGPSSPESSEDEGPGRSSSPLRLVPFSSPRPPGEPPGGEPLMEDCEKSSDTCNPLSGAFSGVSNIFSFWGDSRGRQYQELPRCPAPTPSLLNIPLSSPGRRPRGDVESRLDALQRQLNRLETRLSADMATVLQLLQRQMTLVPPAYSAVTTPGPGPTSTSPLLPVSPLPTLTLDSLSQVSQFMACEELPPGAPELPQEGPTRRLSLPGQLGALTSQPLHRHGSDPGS
In words: Inhibition evaluation on hERG K+ channel (whole-cell recording, HEK 293). It counts as cell-based. The note with it: HEK 293 cells stably transfected with hERG.

In the next series the target is T3, hCA IX (Homo sapiens, UniProt Q16790).
T3 construct: purchased
As to the kind of experiment: CA inhibition by the esterase assay, hCA IX. The class given is biochemical. The procedure: as §3

The nature of series [2]: Acute toxicity assay in mice. The note with it: mouse, in vivo, oral, mice, expected from preliminary data. The procedure: (§6) Finally, acute toxicity of representative compounds was conducted in mice to preliminarily evaluate the risk of target compounds to mammals. […].
(§7) […]. After the compound was administered, the latency of death was observed and recorded over a span of 14 days. The experimental protocols were evaluated and approved by the ethics committee of the Shenyang Pharmaceutical University.

For the next series, the system named is mice. As to the kind of experiment: Acute toxicity assay in mice. To be noted: mouse, in vivo, 14 days. The protocol:
as §6, §7

The test system of the next series is HT-29 cancer cells. In words: Extracellular pH measurement, HT-29. The class given is cell-based, human. To be noted: HT-29, 0.1 and 0.5 mM, 48 h, normoxia and hypoxia. The procedure: as §1, §2
Another series can be described thus: in vitro. To be noted: mouse, microsomes.

Like-named read-outs stand apart in the source and are kept apart here. Bounds are passed on as bounds.

Description for hERG channel: HEK 293 cells were stably transfected with human Ether-a-gogo related gene (hERG) channel. The voltage-gated hERG potassium channel current was recorded at room temperature from randomly selected transfected cells using whole-cell recording technique with an EPC10 USB (HEKA) or Multiclamp 700 B amplifier (Molecular Devices) while electrical data was digitalized by Digidata1440 A with acquisition rate of 10 kHz and signals filtered at 2.5 KHz using Patchmaster or pClamp 10, respectively. Dofetilide was included as a positive control to ensure the accuracy and sensitivity of the test system. All experiments were performed in 3 times.

By IC50 is commonly meant the concentration needed to halve the response being measured. What is called CLint scaled is the rate of metabolic loss divided by the concentration. One may read the viability as a read-out of living cells in per cent, often relative to untreated cells. One may read the LD50 as the dose expected to kill half of the subjects tested. With `O=c1ccc2ccc(OCc3cn([C@@H]4O[C@H](CO)[C@@H](O)[C@H](O)[C@H]4O)nn3)cc2o1` [Compound 10a, 7-[(1-β-. D-glucopyranosyl-1H-1,2,3-triazol-4-yl)methoxy]-2H-chromen-2-one], the “Effect on extracellular acidification (extracellular pH)” value in the series with MDA-MB-231 cancer cells and in the series with HT-29 cancer cells was “important impact on the extracellular acidification” in each case. In the series “Plasma stability assay” (time point 0 min), the fraction remaining at 0 h was found to be 100%. For the same molecule, the fraction remaining at 10 min in the series “Plasma stability assay” (time point 10 min) came to 115%. Also, the amount remaining at 0.5 h in the series “Plasma stability assay” (time point 30 min) is 93%. Also, the amount remaining at 1 h in the series “Plasma stability assay” (time point 60 min) turned out to be 86%. The share remaining at 2 h in “Plasma stability assay” (time point 120 min) came out at 102%. Besides, the half-life in the series “Plasma stability assay” (read-out: T1/2 plasma stability) was more than 20.5 h. Further, the IC50 is 33.2 µM on hCA I; 21.5 µM at hCA II; more than 100 µM in the series on MCF-10A cell line; more than 50 µM on hERG channel; 0.011 µM on hCA IX (human recombinant enzyme, esterase assay, 4-nitrophenylacetate as substrate). The CLint scaled at 1 μM in series [1] (mouse, liver microsomes) came out at 4.76 mL/min/kg. The molecule also yielded a half-life at 1 μM in [1] (mouse, liver microsomes) of 19.2 h. Besides, the viability at 100 µM with MDA-MB-231 cells (hypoxia (0.5% O2, 5% CO2 and 94.5% N2), read-out: Cell Viability (%) MDA-MB-231 Hypoxia) was found to be 32.9%; in the series with MDA-MB-231 cells (normoxia, read-out: Cell Viability (%) MDA-MB-231 Normoxia) it was 51.3%; in the series with HT-29 cells (hypoxia (0.5% O2, 5% CO2 and 94.5% N2), read-out: Cell Viability (%) HT-29 Hypoxia), 32.5%; in the series on HT-29 cells (normoxia, read-out: Cell Viability (%) HT-29 Normoxia), 40.2%. In addition, on hCA IX (ratio of IC50 values), the “Selectivity Ratio hCA I/hCA IX” value is 3018. The “Selectivity Ratio hCA II/hCA IX” value at hCA IX (ratio of IC50 values) worked out at 1955. This molecule also showed an LD50 at 14 days in [2] of more than 1500 mg/kg. The “Survival Quantity/Total Quantity” value with mice (500 mg/kg), in the series on mice (1000 mg/kg) and in the series with mice (1500 mg/kg) was 5/5 in each case.
In turn, `O=C(O)Cc1ccccc1Nc1c(Cl)cccc1Cl` [Diclofenac, reference compound] registered a CL in series [1] (mouse liver microsomes, 1 μΜ test compound) of 137.4 mL/min/kg. The same molecule returned a half-life at 1 μM in the series “in vitro” of 0.667 h.
